Patent US4808409A, “Low cariogenic sweetening agents” (Board of Trustees, University of Illinois, priority 1984, dated 1989)

Experiments:
human taste panel = test: Human taste panel magnitude estimation of sweetness intensity and pleasantness
Excerpt: Solutions were presented to the subjects in a randomized fashion and were sampled in duplicate. After tasting, each solution was expectorated, and the mouth was washed with distilled water.

male Swiss-Webster mice = test: in vivo; conditions: oral
Protocol: (§1) Compounds were suspended in a minimum volume of 1% sodium carboxymethylcellulose, and were administered by oral intubation at the doses indicated in Table II.
^a Male SwissWebster mice (9 or 10 animals per dose).
^d Mortality = number of mice dying within 14 days/number of starting
^e Mortality = number of mice dying within 24 hours/number of startin

[1] = system: Salmonella typhimurium strain TM677; test: Forward mutation assay; assay type: cell-based; conditions: synthetic hernandulcin
S. mutans [2] = test: Cariogenicity: acid production by S. mutans from sweetener; assay type: cell-based
Protocol: In a first test, the ability of microbes to utilize this sweetener source as a nutrient and convert it to acidic by-products was determined.

S. mutans [3] = test: Cariogenicity: inhibition of acid production from sucrose by S. mutans; assay type: cell-based; conditions: 428 micrograms per unit volume sucrose, 5,000 micrograms per unit volume sweetener
Protocol: In a second test, the ability of the test compound to inhibit acid production from sucrose by S. mutans was determined.

[4] = Body weight variation in mice following oral administration; conditions: for Day 14 total body weight vs control values: Day 14, in words
Protocol: as §1

SMILES: CC(C)=CCC[C@@](C)(O)[C@H]1CCC(C)=CC1=O (relative stereo) [synthetic hernandulcin, 6-(1',5'-dimethyl-1'-hydroxyhex-4'-en-1'-yl)-3-methyl-2-cyclohexen-1-one]
- Taste (human taste panel; in words, synthetic racemic hernandulcin): sweet
- Acute toxicity for mice (male Swiss-Webster mice; in words): non-toxic
- Mutagenic activity without metabolic activation ([1]; in absence of activating system): No significant mutagenic activity
- Mutagenic activity with metabolic activation ([1]; in presence of activating system from livers of Aroclor 1254-pretreated rats): No significant mutagenic activity
- Rate of acid production at 5,000 micrograms per unit volume (S. mutans [2]; 5,000 micrograms per unit volume sweetener): 2.6×10^-5 mEq acid/min.
- Rate of acid production compared to sucrose (S. mutans [2]; in words, 5,000 micrograms per unit volume): relatively low rate of acid production
- Inhibition of acid production from sucrose (S. mutans [3]): failed to reduce the rate of acid production

SMILES: OC[C@H]1O[C@@](CO)(O[C@H]2O[C@H](CO)[C@@H](O)[C@H](O)[C@H]2O)[C@@H](O)[C@@H]1O [Sucrose, reference compound]
- Sweetness intensity, sucrose 0.031 M (human taste panel; 0.031 M, scale 0-100, mean (standard error)): 6.6 (2.44)
- Sweetness pleasantness, sucrose 0.031 M (human taste panel; 0.031 M, scale -100 to +100, mean (standard error)): -3.2 (6.44)
- Sweetness intensity, sucrose 0.062 M (human taste panel; 0.062 M, scale 0-100, mean (standard error)): 7.8 (1.96)
- Sweetness pleasantness, sucrose 0.062 M (human taste panel; 0.062 M, scale -100 to +100, mean (standard error)): -1.6 (7.61)
- Sweetness intensity, sucrose 0.125 M (human taste panel; 0.125 M, scale 0-100, mean (standard error)): 21.9 (3.30)
- Sweetness pleasantness, sucrose 0.125 M (human taste panel; 0.125 M, scale -100 to +100, mean (standard error)): 19.2 (5.23)
- Sweetness intensity, sucrose 0.25 M (human taste panel; 0.25 M, scale 0-100, mean (standard error)): 38.1 (4.43)
- Sweetness pleasantness, sucrose 0.25 M (human taste panel; 0.25 M, scale -100 to +100, mean (standard error)): 31.8 (6.34)
- Sweetness intensity, sucrose 0.50 M (human taste panel; 0.50 M, scale 0-100, mean (standard error)): 44.4 (4.63)
- Sweetness pleasantness, sucrose 0.50 M (human taste panel; 0.50 M, scale -100 to +100, mean (standard error)): 37.8 (5.96)
- Sweetness intensity, sucrose 1.0 M (human taste panel; 1.0 M, scale 0-100, mean (standard error)): 75.5 (4.73)
- Sweetness pleasantness, sucrose 1.0 M (human taste panel; 1.0 M, scale -100 to +100, mean (standard error)): 2.5 (9.57)
- Sweetness intensity, sucrose 2.0 M (human taste panel; 2.0 M, scale 0-100, mean (standard error)): 89.1 (2.93)
- Sweetness pleasantness, sucrose 2.0 M (human taste panel; 2.0 M, scale -100 to +100, mean (standard error)): -20.2 (12.69)
- Sucrose concentration providing a standard panel response to sucrose intensity (human taste panel; determined graphically): 0.27 M
- Sweetness intensity at matched concentration (human taste panel; scale 0-100, sucrose 0.27 M, natural hernandulcin 2.5 × 10^-4 M): 40
- Rate of acid production at 500 micrograms per unit volume (S. mutans [2]; 500 micrograms per unit volume sucrose): 2.8×10^-4 mEq acid/min.

SMILES: CC(=O)CCC=C(C)C [6-Methyl-5-hepten-2-one, 6-methyl-5-hepten-2-one]
- Mortality at 1.0 g/kg (male Swiss-Webster mice; 1.0 g/kg, 14 days, hernandulcin = synthetic): 0/9
- Mortality at 2.0 g/kg (14 days) (male Swiss-Webster mice; 2.0 g/kg, 14 days, hernandulcin = synthetic): 0/9
- Acute toxicity for mice (male Swiss-Webster mice; in words): essentially non-toxic
- Estimated LD50 (male Swiss-Webster mice; male mice, hernandulcin = synthetic (two enantiomers)): > 2000 mg/kg
- Mortality at doses up to 2 g/kg (male Swiss-Webster mice; up to 2 g/kg body weight, in words): no mortality
- Body weight, Day 1 (1.0 g/kg) ([4]; 1.0 g/kg oral, Day 1, hernandulcin = synthetic): 28.2 ± 0.8 g
- Body weight, Day 3 (1.0 g/kg) ([4]; 1.0 g/kg oral, Day 3, hernandulcin = synthetic): 26.3 ± 0.8 g
- Body weight, Day 7 (1.0 g/kg) ([4]; 1.0 g/kg oral, Day 7, hernandulcin = synthetic): 24.7 ± 0.9 g
- Body weight, Day 14 (1.0 g/kg) ([4]; 1.0 g/kg oral, Day 14, hernandulcin = synthetic): 28.0 ± 0.8 g
- Body weight, pre-drug (1.0 g/kg group) ([4]; 1.0 g/kg oral, pre-drug, hernandulcin = synthetic): 27.7 ± 0.8 g
- Body weight, Day 1 (2.0 g/kg) ([4]; 2.0 g/kg oral, Day 1, hernandulcin = synthetic): 28.6 ± 0.8 g
- Body weight, Day 3 (2.0 g/kg) ([4]; 2.0 g/kg oral, Day 3, hernandulcin = synthetic): 26.8 ± 0.9 g
- Body weight, Day 7 (2.0 g/kg) ([4]; 2.0 g/kg oral, Day 7, hernandulcin = synthetic): 25.0 ± 0.9 g
- Body weight, Day 14 (2.0 g/kg) ([4]; 2.0 g/kg oral, Day 14, hernandulcin = synthetic): 24.5 ± 0.8 g
- Body weight, pre-drug (2.0 g/kg group) ([4]; 2.0 g/kg oral, pre-drug, hernandulcin = synthetic): 28.8 ± 0.8 g
- Day 14 total body weight vs control values [4]: Significant difference from controls
- Day 14 total body weight vs control values ([4]; listed as 6-methyl-5-hepten-2-one): significantly different from control values
